Reference: patent US20030130180A1, “Utilization of an aminopeptidase inhibitor” (priority 2000, published 2003)

System: Karpas cells
Assay: Detection of surface protein combinations of the protein network on untreated (V1) and actinonin-treated (V2) Karpas cells
Format: cell-based
Settings: actinonin-treated Karpas cells (V2)
Source text: Principally, detecting of the surface protein combinations may comprise procedural steps of an automated method for determining molecular classes, molecular groups or molecular parts in a solid or liquid object according to DE 197 09 348 C. In these steps, surface proteins may be examined and measured in one and the same object, i.e. in a sample of immune cells and/or tumor cells for example, by sequentially applying reagent solutions Yn (n=1,2,3, . . . N) by means of an automated apparatus, said procedural steps being: I. taking a first reagent solution Y1 from a vessel containing the reagent solution, II. applying said reagent solution Y1 to the object which is on an object slide, III. allowing the reagent solution to react for an automatically set period of time, IV. recording at least one individual labeling pattern of the object previously labeled with said first reagent solution Y1, V. repeating steps I-IV by applying said first reagent solution Y1 or a second reagent solution Y2 or a mixture of said first and second reagent solutions, and VI. repeating steps I to V with further reagent solutions Yn (n=2,3, . . . N) or a mixture thereof and whereby the labeling distribution patterns obtained in each cycle of the method are turned into a complex molecular combination pattern of the object to be examined by computer-aided image overlay. From this combination pattern, information may be gained on the presence of the above mentioned proteins, thus also allowing detection of the surface protein combinations, if the reagent solutions used contain labeled substances directed against the proteins in question. In numerous examinations, it was possible to identify the 30 cell surface proteins already listed above which belong to a specific protein network controlling the early polarization stages of tumor cells and immune cells. In a further examination, surface protein combinations of this protein network of Karpas cells were detected, both in untreated form and after treatment with the aminopeptidase inhibitor actinonin. For this purpose, two groups V1 and V2 of Karpas cells were formed, with the cells of group Vl remaining untreated, while the cells of group V2 were treated with actinonin. Table 2 lists those surface protein combinations which are present both in the actinonin-treated cells and in the untreated cells. However, this table and the further tables 3 and 4 only give examples of 18 of the 30 proteins, with the detected proteins being designated 1 and the non-detected proteins being designated 0. The proteins are continuously numbered 1 to 18, with the nomenclature being notable from table 1. [table] The cell numbers stated in tables 2 to 4 refer to each 1,000 cells examined in groups V1 and V2. Table 3 lists the surface protein combinations which only occur in the untreated Karpas cells and are never found in the actinonin-treated Karpas cells. The number of protein combinations listed in this table 3 amounts to 131. Finally, table 4 exclusively lists those surface protein combinations which occur exclusively in the actinonin-treated Karpas cells. It may be gathered from tables 2 to 4 that, if one examines merely 18 proteins of the 30 proteins, a total of 394 different surface protein combinations will occur, with a total of 334 different combinations occurring in the untreated cells and a total of 263 different combinations being detected in the treated cells.

Measured: V2 No. of cells In 1/1000

CCCCC[C@H](CC(=O)NO)C(=O)N[C@H](C(=O)N1CCC[C@H]1CO)C(C)C [actinonin]
0.0 1/1000: surface protein combination No. 19, binary code proteins 1-18: 011000011101011100, untreated V1: 0.4 | surface protein combination No. 20, binary code proteins 1-18: 011000011000000000, untreated V1: 0.4 | surface protein combination No. 21, binary code proteins 1-18: 010000001101001100, untreated V1: 0.4 | surface protein combination No. 22, binary code proteins 1-18: 010000001100011100, untreated V1: 0.4 | surface protein combination No. 23, binary code proteins 1-18: 001100011011001000, untreated V1: 0.4 | surface protein combination No. 24, binary code proteins 1-18: 001100011001001000, untreated V1: 0.4 | surface protein combination No. 25, binary code proteins 1-18: 001000010101101000, untreated V1: 0.4 | surface protein combination No. 26, binary code proteins 1-18: 001000010010001000, untreated V1: 0.4 | surface protein combination No. 27, binary code proteins 1-18: 000000000010001000, untreated V1: 0.4 | surface protein combination No. 28, binary code proteins 1-18: 111000011111011100, untreated V1: 0.2 | surface protein combination No. 29, binary code proteins 1-18: 110000011100011100, untreated V1: 0.2 | surface protein combination No. 30, binary code proteins 1-18: 101100000000001100, untreated V1: 0.2 | surface protein combination No. 31, binary code proteins 1-18: 101000111111011000, untreated V1: 0.2 | surface protein combination No. 32, binary code proteins 1-18: 011100011111011100, untreated V1: 0.2 | surface protein combination No. 33, binary code proteins 1-18: 011100011100001000, untreated V1: 0.2 | surface protein combination No. 34, binary code proteins 1-18: 011100001100001100, untreated V1: 0.2 | surface protein combination No. 35, binary code proteins 1-18: 001100000011001000, untreated V1: 0.2 | surface protein combination No. 36, binary code proteins 1-18: 001000011100000000, untreated V1: 0.2 | surface protein combination No. 37, binary code proteins 1-18: 001000010111011100, untreated V1: 0.2 | surface protein combination No. 38, binary code proteins 1-18: 001000010110001000, untreated V1: 0.2 | surface protein combination No. 39, binary code proteins 1-18: 001000001011000000, untreated V1: 0.2 | surface protein combination No. 40, binary code proteins 1-18: 000100010100001000, untreated V1: 0.2 | surface protein combination No. 41, binary code proteins 1-18: 000000011011001000, untreated V1: 0.2 | surface protein combination No. 42, binary code proteins 1-18: 000000010110001000, untreated V1: 0.2 | surface protein combination No. 43, binary code proteins 1-18: 000000010010001000, untreated V1: 0.2 | surface protein combination No. 44, binary code proteins 1-18: 000000000000001100, untreated V1: 0.2 | surface protein combination No. 45, binary code proteins 1-18: 111100101100011000, untreated V1: 0.1 | surface protein combination No. 46, binary code proteins 1-18: 111100011101001100, untreated V1: 0.1 | surface protein combination No. 47, binary code proteins 1-18: 111100011100111100, untreated V1: 0.1 | surface protein combination No. 48, binary code proteins 1-18: 111100011100011000, untreated V1: 0.1 | surface protein combination No. 49, binary code proteins 1-18: 111000011111011000, untreated V1: 0.1 | surface protein combination No. 50, binary code proteins 1-18: 111000011101011000, untreated V1: 0.1 | surface protein combination No. 51, binary code proteins 1-18: 111000001100011100, untreated V1: 0.1 | surface protein combination No. 52, binary code proteins 1-18: 110000001101011100, untreated V1: 0.1 | surface protein combination No. 53, binary code proteins 1-18: 110000001100000100, untreated V1: 0.1 | surface protein combination No. 54, binary code proteins 1-18: 101100011011011000, untreated V1: 0.1 | surface protein combination No. 55, binary code proteins 1-18: 101100010111001100, untreated V1: 0.1 | surface protein combination No. 56, binary code proteins 1-18: 101100010011001000, untreated V1: 0.1 | surface protein combination No. 57, binary code proteins 1-18: 101100000000001000, untreated V1: 0.1 | surface protein combination No. 58, binary code proteins 1-18: 101000110101011000, untreated V1: 0.1 | surface protein combination No. 59, binary code proteins 1-18: 101000011111011100, untreated V1: 0.1 | surface protein combination No. 60, binary code proteins 1-18: 101000011101011000, untreated V1: 0.1 | surface protein combination No. 61, binary code proteins 1-18: 101000010111111000, untreated V1: 0.1 | surface protein combination No. 62, binary code proteins 1-18: 101000010101011100, untreated V1: 0.1 | surface protein combination No. 63, binary code proteins 1-18: 100100110100011100, untreated V1: 0.1 | surface protein combination No. 93, binary code 001100010111111000 | surface protein combination No. 94, binary code 001100010111101100 | surface protein combination No. 95, binary code 001100010100011000 | surface protein combination No. 96, binary code 001100010011001100 | surface protein combination No. 97, binary code 001100010001001100 | surface protein combination No. 98, binary code 001100001101001000 | surface protein combination No. 99, binary code 001100000101000000 | surface protein combination No. 100, binary code 001000111111011000 | surface protein combination No. 101, binary code 001000111101011000 | surface protein combination No. 102, binary code 001000111011011000 | surface protein combination No. 103, binary code 001000011111011100 | surface protein combination No. 104, binary code 001000011101101000 | surface protein combination No. 105, binary code 001000011001011000 | surface protein combination No. 106, binary code 001000011001000100 | surface protein combination No. 107, binary code 001000010111101000 | surface protein combination No. 108, binary code 001000010101000100 | surface protein combination No. 109, binary code 001000010100011000 | surface protein combination No. 110, binary code 001000010011010000 | surface protein combination No. 111, binary code 001000010001011100 | surface protein combination No. 112, binary code 001000001111001000 | surface protein combination No. 113, binary code 001000001011001000 | surface protein combination No. 114, binary code 001000001001001000 | surface protein combination No. 115, binary code 001000001000000000 | surface protein combination No. 116, binary code 001000000110001000 | surface protein combination No. 117, binary code 000100011001000000
